From patent US5691373A, “Nonpeptide endothelin antagonists I” (Warner-Lambert Company, priority 1995, dated 1997)
Structures can show the parent of a compound that is named as a salt. Where two headings read alike, the source gives them in different places.

Experiments:
[1] = target: T1, ETA (Oryctolagus cuniculus, UniProt A5A8K3)
T1 sequence (A5A8K3 21-427): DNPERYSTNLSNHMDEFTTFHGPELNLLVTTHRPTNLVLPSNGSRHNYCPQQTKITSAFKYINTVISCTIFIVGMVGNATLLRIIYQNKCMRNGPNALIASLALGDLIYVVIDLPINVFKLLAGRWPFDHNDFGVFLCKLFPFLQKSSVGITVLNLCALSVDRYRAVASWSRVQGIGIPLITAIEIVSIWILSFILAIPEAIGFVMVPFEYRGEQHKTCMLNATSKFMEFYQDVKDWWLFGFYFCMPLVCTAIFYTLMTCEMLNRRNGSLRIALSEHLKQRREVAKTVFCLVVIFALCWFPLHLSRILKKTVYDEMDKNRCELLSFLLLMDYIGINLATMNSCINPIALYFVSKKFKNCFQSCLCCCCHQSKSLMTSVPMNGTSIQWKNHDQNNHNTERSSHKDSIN

[2] = target: T2, human ETB receptor (Homo sapiens, UniProt P24530); assay: ERBA-B: [125I]-ET-1 binding, recombinant human ETB receptor expressed in CHO-K1 cells; conditions: human cloned ETB receptor, read-out: ERBA-B IC50, human cloned receptor data
T2 construct: expressed in transfected cells; host or cells: CHO-K1 cells, pRc-CMW (so in the source) expression vector, electroporation; membranes used
T2 sequence (P24530 27-442): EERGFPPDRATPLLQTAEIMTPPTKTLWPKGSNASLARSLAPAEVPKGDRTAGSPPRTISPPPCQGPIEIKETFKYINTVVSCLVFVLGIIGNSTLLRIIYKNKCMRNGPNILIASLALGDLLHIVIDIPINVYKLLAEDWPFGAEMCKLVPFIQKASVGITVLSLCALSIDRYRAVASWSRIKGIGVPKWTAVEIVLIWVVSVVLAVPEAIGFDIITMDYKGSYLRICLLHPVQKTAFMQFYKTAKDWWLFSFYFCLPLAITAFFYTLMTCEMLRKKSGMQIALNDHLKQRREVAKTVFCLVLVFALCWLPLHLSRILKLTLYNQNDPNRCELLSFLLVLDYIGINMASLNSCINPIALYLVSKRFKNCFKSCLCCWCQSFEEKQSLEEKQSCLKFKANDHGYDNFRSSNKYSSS
Procedure: Count filters for radioactivity in gamma counter.
The above process has also been modified by using human recombinant CHO-K1 cells.
The tissue used for human ETB was recombinant human ETB receptor expressed in CHO-K1 cells (chinese hamster ovary cells). The gene for human ETB receptor was cloned and inserted into the pRc-CMW expression vector, then transfected into CHO-K1 cells by electroporation. For binding assays, membranes (0.7 mg protein) of CHO-K1 cells expressing recombinant human ETB receptor were used.
^d Human cloned receptor data

[3] = ERBA-A IC50, [125I]-ET-1, rabbit renal artery vascular smooth muscle cells
[4] = read-out: ERBA-A IC50, [125I]-ET-1, rabbit renal artery vascular smooth muscle cells

| Compound | IC50 [1, 3] | IC50 [2] | IC50 [1, 4] |
| --- | --- | --- | --- |
| COc1ccc(C2(O)OC(=O)C(c3ccc4c(c3)OCO4)=C2Cc2cncc3ccccc23)cc1 (racemic) [Example 164, monohydrochloride] | 50 nM | 4000 nM |  |
| COc1ccc(C2(O)OC(=O)C(c3cc(OC)cc(OC)c3)=C2Cc2cccnc2)cc1 (racemic) [Example 166, 2(5H)-Furanone, 3-(3,5-dimethoxyphenyl)-5-hydroxy-5-(4-methoxyphenyl)-4-(3-pyridinylmethyl)-, (±)-, monohydrochloride] | 40 nM | > 2500 nM |  |
| COc1ccc(C2(O)OC(=O)C(c3ccc4c(c3)OCO4)=C2Cc2ccc(OC(C)C)c(C)c2)cc1C (centres unmarked) [Example 395, 3-Benzo[1,3]dioxol-5-yl-5-hydroxy-4-(4-isopropoxy-3-methyl-benzyl)-5-(4-methoxy-3-methyl-phenyl)-5H-furan-2-one] | 13 nM | 840 nM |  |
| C=CCOc1ccc(OC)cc1C1=C(Cc2ccccc2)C(O)(c2ccc(OC)cc2)OC1=O (centres unmarked) [Example 337, 3-(2-Allyloxy-5-methoxy-phenyl)-4-benzyl-5-hydroxy-5-(4-methoxy-phenyl)-5H-furan-2-one] | 2500 nM | > 25000 nM |  |
| COc1ccc(C2(O)OC(=O)C(c3ccc4c(c3)OCO4)=C2Cc2cc(OC)c(OC)cc2OC)cc1 (centres unmarked) [Example 306, 3Benzo[1,3]dioxol-5-yl-5-hydroxy-5-(4-methoxy-phenyl)-4-(2,4,5-trimethoxy-benzyl)-5H-furan-2-one] | 2 nM | 850 nM |  |
| COc1ccc(C(=O)/C(Cc2cc(OC)c(OC)c(OC)c2)=C(\C(=O)O)c2cc(OC)c3c(c2)OCO3)cc1 [Example 371] | 0.39 nM | 328 nM |  |
| COc1ccc(C2(O)OC(=O)C(c3ccc4c(c3)OCO4)=C2Cc2cccnc2)cc1 (racemic) [Example 165, 2(5H)-Furanone, 3-(1,3-benzodioxol-5-yl)-5-hydroxy-5-(4-methoxyphenyl)-4-(3-pyridinylmethyl)-, (±)-, monohydrochloride] | 40 nM | 25000 nM |  |
| COc1ccc(C2(O)OC(=O)C(c3ccc4c(c3)OCO4)=C2Cc2ccc3c(c2)OCO3)cc1 (centres unmarked) [Example 87, 3-Benzo[1,3]dioxol-5-yl-4-benzo[1,3]dioxol-5-ylmethyl-5-hydroxy-5-(4-methoxyphenyl)-5H-furan-2-one] | 63 nM | 1500 nM |  |
| COc1ccc(C2(O)OC(=O)C(c3ccc(OC)c(OC)c3)=C2Cc2ccccc2)cc1 (centres unmarked) [Example 261, 4-Benzyl-3-(3,4-dimethoxyphenyl)-5-hydroxy-5-(4-methoxyphenyl)-5H-furan-2-one] | 160 nM | 3900 nM |  |
| O=C1OC(O)(c2cccc(Cl)c2)C(Cc2ccccc2)=C1c1ccc2c(c1)OCO2 (centres unmarked) [Example 235, 3-Benzo[1,3]dioxol-5-yl-4-benzyl-5-(3-chlorophenyl)-5-hydroxy-5H-furan-2-one] | 670 nM | > 2500 nM |  |
| O=C1OC(O)(c2ccc(OCc3ccccc3)cc2)C(Cc2ccccc2)=C1c1ccc2c(c1)OCO2 (centres unmarked) [Example 208, 3-Benzo[1,3]dioxol-5-yl-4-benzyl-5-(4-benzyloxyphenyl)-5-hydroxy-5H-furan-2-one] | 1200 nM | 5400 nM |  |
| COc1ccc(C2(O)OC(=O)C(c3ccc4c(c3)OCO4)=C2CC2CC=CCC2)cc1 (centres unmarked) [Example 316, 3-Benzo[1,3]dioxol-5-yl-4-cyclohex-3-enylmethyl-5-hydroxy-5-(4-methoxy-phenyl)-5H-furan-2-one] | 8.1 nM | 690 nM |  |
| COc1ccc(C(=O)/C(Cc2ccccc2)=C(\C(=O)O)c2cc(OC)c3c(c2)OCO3)cc1C [Example 370, Sodium 3-Benzyl-2-(7-methoxy-benzo[1,3]dioxol-5-yl)-4-(4-methoxy-3-methyl-phenyl)-4-oxo-but-2-enoate] | 10 nM | 1530 nM |  |
| CCCCCC1=C(c2ccc3c(c2)OCO3)C(=O)OC1(O)c1ccc(OC)cc1 (centres unmarked) [Example 340, 3-Benzo[1,3]dioxol-5-yl-5-hydroxy-5-(4-methoxy-phenyl)-4-pentyl-5H-furan-2-one] | 69 nM | 630 nM |  |
| COc1ccc(C2(O)OC(=O)C(c3ccc4c(c3)OCO4)=C2Cc2ccc(C(=O)NCCN3CCOCC3)cc2)cc1 (racemic) [Example 350, Benzamide, 4-[4-(1,3-benzodioxol-5-yl)-2,5-dihydro-2-hydroxy-2-(4-methoxyphenyl)-5-oxo-3-furanyl]methyl]-N-[2-(4-morpholinyl)ethyl]-, monohydrochloride, (±)-] |  | > 2500 nM | 290 nM |
| COc1cc(OC)cc(/C(C(=O)O)=C(\Cc2c(OC)cc(OC)cc2OC)C(=O)c2ccc(OC)c(C)c2)c1 [Example 392] | 3800 nM | 14000 nM |  |
| COc1ccc(C(=O)/C(Cc2ccc(NC(C)=O)cc2)=C(\C(=O)O)c2ccc3c(c2)OCO3)cc1 [Example 366, Potassium 3-(4-Acetylamino-benzyl)-2-benzo[1,3]dioxol-5-yl-4-(4-methoxy-phenyl)-4-oxo-but-2-enoate] | 7.3 nM | 4900 nM |  |
| COc1ccc(C2(O)OC(=O)C(c3ccc4c(c3)OCO4)=C2Cc2ccc(OC)cc2OCC(=O)O)cc1 (centres unmarked) [Example 344, {2-[4-Benzo[1,3]dioxol-5-yl-2-hydroxy-2-(4-methoxy-phenyl)-5-oxo-2,5-dihydro-furan-3-ylmethyl]-5-methoxy-phenoxy}-acetic acid] | 380 nM | > 25000 nM |  |
| COc1ccc(C2(O)OC(=O)C(c3ccc4c(c3)OCO4)=C2Cc2ccccc2Oc2ccccc2)cc1 (centres unmarked) [Example 313, 3-Benzo[1,3]dioxol-5-yl-5-hydroxy-5-(4-methoxy-phenyl)-4-(2-phenoxy-benzyl) -5H-furan-2-one] | 99 nM | > 2500 nM |  |
| CCOC(=O)COc1cc(CC2=C(c3ccc4c(c3)OCO4)C(=O)OC2(O)c2ccc(OC)cc2)cc(OC)c1OC (centres unmarked) [Example 363, {5-[4-Benzo[1,3]dioxol-5-yl-2-hydroxy-2-(4-methoxyphenyl)-5-oxo-2,5-dihydro-furan-3-ylmethyl]-2,3-dimethoxy-phenoxy}-acetic acid ethyl ester] | < 2.5 nM | 1100 nM |  |
| CCC1=C(c2ccc3c(c2)OCO3)C(=O)OC1(O)c1ccc(OC)cc1 (centres unmarked) [Example 91, 3-Benzo[1,3]dioxol-5-yl-4-ethyl-5-hydroxy-5-(4-methoxyphenyl)-5H-furan-2-on] | 530 nM | 15000 nM |  |
| COc1ccc(C(=O)/C(Cc2ccc(C(=O)NCCN3CCOCC3)cc2)=C(\C(=O)O)c2ccc3c(c2)OCO3)cc1 [Example 349, 2-benzo[1,3]dioxol-5-yl-4-(4-methoxy-phenyl)-3-[4-(2-morpholin-4-yl-ethylcarbamoyl)-benzyl]-4-oxo-but-2-enoic acid] | 510 nM | 25000 nM |  |
| COc1ccc(C2(O)OC(=O)C(c3ccc4c(c3)OCO4)=C2Cc2cc(C)c(OC(C)C)c(C)c2)cc1 (centres unmarked) [Example 297, 3-Benzo[1,3]dioxol-5-yl-4-(3,5-dimethyl-4-isopropoxybenzyl)-5-hydroxy-5-(4-methoxy-phenyl)-5H-furan-2-one] | 64 nM | 870 nM |  |
| COc1ccc(CC2=C(c3ccc(Cl)c(Cl)c3)C(=O)OC2(O)c2ccc(OC)cc2)cc1 (centres unmarked) [Example 117, 3-(3,4-Dichlorophenyl)-5-hydroxy-4-(4-methoxybenzyl)-5-(4-methoxyphenyl)-5H -furan-2-one] | 310 nM | 2700 nM |  |
| COc1ccc(C2(O)OC(=O)C(c3ccc4c(c3)OCO4)=C2CC(c2ccccc2)C2CCCC2)cc1 (centres unmarked) [Example 319, 3-Benzo[1,3]dioxol-5-yl-4-(2-cyclopentyl-2-phenylethyl)-5-hydroxy-5-(4methoxy-phenyl)-5H-furan-2-one] | 5.6 nM | 180 nM |  |
| COc1ccc(C2(O)OC(=O)C(c3ccc4c(c3)OCO4)=C2CC2CCCC2)cc1 (centres unmarked) [Example 314, 3-Benzo[1,3]dioxol-5-yl-4-cyclopentylmethyl-5-hydroxy-5-(4-methoxy-phenyl)-5H-furan-2-one] | 8.4 nM | 640 nM |  |
| O=C(O)/C(=C(/Cc1ccccc1)C(=O)c1ccc(-n2ccnc2)cc1)c1ccc2c(c1)OCO2 [Example 348, 2-Butenoic acid, 2-(1,3-benzodioxol-5-yl)-4-[4-(1H-imidazol-1-yl)phenyl]4-oxo-3-(phenylmethyl)-] | 7100 nM | > 25000 nM |  |
| COc1ccc(C2(O)OC(=O)C(c3cc(OC)cc(OC)c3)=C2Cc2ccc(Cl)cc2)cc1 (centres unmarked) [Example 274] |  | > 2500 nM | 140 nM |
